What was measured:
women = conditions: POP; desogestrel 0.075 mg, LNG 0.030 mg; cited from earlier work
[1] = system: healthy female subjects aged 18-35 years; test: Inhibition of ovulation / ovarian activity by Hoogland score, phase 2 clinical trial; type: in vivo, human; conditions: 75 μg/day of levonorgestrel, vaginal
Protocol: The study consists of 4 phases: • Screening phase (minimum of 4 weeks and maximum of 8 weeks if washout cycle was needed). • Pre-treatment cycle (28 days) and randomization. • Treatment cycle consisting of 56 treatment days (2 cycles, 28 days per cycle). • Post-treatment cycle (28 days).
The inhibition of ovulation was determined by the calculation of the Hoogland Score, which combined the measurement of follicle size in mm by TVU and progesterone/estradiol serum concentration in nmol/L (in case an ovulation was suspected sonographically in TC1 or TC2, it was confirmed by blood progesterone levels and reflected by Landgren Score).
Primary endpoint analysis: the inhibition of ovulation (Yes, No), was analyzed through a logistic regression model to compare inhibition of ovulation across treatment groups in which BMI was included as covariate. Adjusted odds ratios (ORs) with their two-sided 95% CI were calculated. No hypothesis testing was performed.

[2] = oral administration; cited from earlier work
[3] = system: healthy female subjects aged 18-35 years; test: Return of ovulation in post-treatment cycle; type: in vivo, human; conditions: FAS; 28-day post-treatment cycle

Compound	Cycles with ovulation inhibited (women)	Ovulation inhibition [1]	Bioavailability [2]	Participants with return of ovulation during post-treatment, % [3]
C#C[C@]1(O)CC[C@H]2[C@@H]3CCC4=CCCC[C@@H]4[C@H]3C(=C)C[C@@]21CC [desogestrel]	at least 98%	–	–	–
C#C[C@]1(O)CC[C@H]2[C@@H]3CCC4=CC(=O)CC[C@@H]4[C@H]3CC[C@@]21CC [levonorgestrel]	–	100%	~100%	more than 80%
